Assay results taken from patent publication US8715749B2, “Products containing polyphenol(s) and L-arginine” (priority 1998, dated 2014).
“Also recorded” adds a separate entry of the source.

Columns and labels:
[1] = test system: Human umbilical vein endothelial cells (HUVEC); assay: Nitric oxide production by HUVEC (nitrite in culture medium, Griess reaction); format: cell-based; settings: for production of nitric oxide by HUVEC (in words): 48 hour incubation
Procedure: The culture medium used was Medium 200 (Cascade Biologics Inc.) supplemented with Low Serum Growth Supplement (Cascade Biologics Inc.) and 20% fetal calf serum (DAP).
The cocoa procyanidins evaluated were the epicatechin monomer, the dimer, the trimer, the tetramer, the pentamer, and the heptamer. The nitrite content of cocoa procyanidins were evaluated. At the maximal concentration used (100 ? g/ml), no nitrite was detected.
Human umbilical vein endothelial cells (HUVEC) were purchased at primary culture stage from Cascade Biologics Inc. (Portland). Cells were cultured in Medium supplemented with Low Serum Growth Supplement (LSGS) and 20% Fetal Calf Serum (FCS) in 75 cm^2 flasks. The cells were seeded for a week following treatment with trypsin-EDTA (2 ml/flask) at 37° C. under 5% CO2 atmosphere. Trypsin was neutralized upon addition of 3 ml. FCS.
The cell suspension was centrifuged for 10 min. at 1200 rpm and the cell pellet was resuspended in the culture medium described above.
Nitric oxide synthase activity was assessed by measuring the nitrite concentration in the culture medium. HUVEC were used between passage 2 to 13. Cells were cultured in 24-well culture plates at the concentration of 5×10^5 cells ml in Medium 200 containing LSGS (300 μl per well), and 20% CS. After a 24 hour to 48 hour incubation period at 37° C. under a 5% CO2 atmosphere, the cells were used confluent (2.5×10^6 cells). Medium was removed and fresh was added.
Cocoa procyanidin monomer and oligomers were added to the culture medium at 100 μg/ml, 10 μg/ml or 1 μg/ml (final concentration). Controls consisted of cells cultured without the procyanidins. Reference compounds included acetylcholine, ionomycin (NO synthase stimulator via calcium entry), lipopolysaccharide (NO synthase inductor), and N-methyl L-arginine acetate (inhibitor of NO synthase). The reference compounds were used in order to evidence nitrite production from endothelial NO synthesis.
NO production was estimated by measurement of nitrite (NO2) concentration in culture supernatants according to the Griess reaction. Briefly, 50 μl of conditional medium were incubated with 150 μl of Griess reagent (1% sulfanilamide in 30% acetic acid/0.1% N-(1-naphtyl)-ethylenediamine dihydrochloride in 60% acetic acid) at room temperature for 2 min. The absorbance at 540 nm was determined in a Labsystems MCC/340 multiskan. Nitrite concentration was determined by using sodium nitrite as standard and analyzed using ΔSOFT 2.12 software. The cell-free medium and 100 μg/ml of procyanidins contained no detectable nitrite concentrations.
Raw Data^1: Showing the Effect of Cocoa Procyanidins On Nitric Oxide Production by HUVEC ^1Results are expressed as μmol nitrite/10^6 cells/48 h

[2] = test system: Aortic rings from New Zealand white rabbits; assay: Endothelium dependent relaxation of pre-contracted rabbit aortic rings in organ baths
Procedure: Aortic rings from New Zealand white rabbits were set up in 20 ml organ baths. […] The cocoa procyanidins tested were the monomer, dimer, trimer, tetramer, pentamer, hexamer.
Rings were incubated for 30′ with these cocoa procyanidins (10^−5M) and re-tested with Ach and cocoa procyanidins (10^−7 to 10^−4). Incubation of the tissue with these cocoa procyanadin(s) attenuated EDR evoked by both the cocoa procyanidins and Ach acutely. The maximum relaxation to Ach pre-incubation, 49±5%; post pentamer incubation, 2±1.4%; post combo 2 incubation, 0.8±0.8%: to pentamer pre-incubation, 46.5±4.5%; post incubation, 6.8±3.2%: to combo 2 pre-incubation, 54.3±7%; post incubation, 1.7±1.1%, n=5).

[3] = test system: arterial blood pressure of anesthetized guinea-pigs; assay: Arterial blood pressure of anesthetized guinea-pigs after intravenous injection; format: in vivo; settings: for Hypertension (%)* Exp 1 / Hypertension (%)* Exp 2 / Hypertension (%)* Exp 3 / Hypertension (%)* Exp 4 / Hypertension (%)* Exp 5 / Hypertension (%)* Exp 6: % of control mean arterial blood pressure
Procedure: Guinea-pigs (around 400 g body weight, male and female) were anesthetized upon injection of 40 mg/kg sodium pentobarbital. The carotid artery was canulated for monitoring of the arterial blood pressure through a Gould pressure transducer (Model P500). Each of the six cocoa procyanidins, at concentrations of 1, 3, 10, and 25 mg/kg, was injected intravenously through the jugular vein. Alterations in blood pressure were recorded on a polygraph.
No marked effect of the vehicle containing DMSO was noted when the dose of 25 mg/kg of the cocoa procyanidin was used (15±5%).
The effects of administering of 1, 3, 10, or 25 mg/kg cocoa procyanidins on arterial blood pressure of anesthetized guinea-pigs was investigated. Upon intravenous injection, the procyanidins monomer and dimer evoked a decrease in blood pressure of about 20%, i.e., not markedly different from injection of solvent alone (15±5%, n=5). […] The rank of potency of the various cocoa procyanidins, considering the highest dose used, was as follows: hexamer=tetramer>pentamer>trimer.

[4] = preliminary experiments, single dose 10^−5 M, rings pre-contracted with norepinephine 10^−5 M

Compound: CC(=O)OCC[N+](C)(C)C [Acetylcholine, acetylcholine]
- Nitric Oxide Production by HUVEC, Exp. 1 ([1]; Acetylcholine 10^−5 M): 2.5 μmol nitrite/10^6 cells/48 h
- Nitric Oxide Production by HUVEC, Exp. 2 ([1]; Acetylcholine 10^−5 M): 2.6 μmol nitrite/10^6 cells/48 h
- Nitric Oxide Production by HUVEC, Exp. 3 ([1]; Acetylcholine 10^−5 M): 2.8 μmol nitrite/10^6 cells/48 h
- Nitric Oxide Production by HUVEC, Mean ([1]; Acetylcholine 10^−5 M): 2.6 μmol nitrite/10^6 cells/48 h
- % Relaxation ([2]; acute exposure, dose 10^−5 M): 49 ± 5.1%
- % Relaxation ([2]; acute exposure, dose 10^−6 M): 42.2 ± 4.2%
- % Relaxation ([2]; acute exposure, dose 10^−7 M): 15.2 ± 2.6%
- maximum relaxation to Ach ([2]; pre-incubation, n=5): 49±5%
- % Relaxation [2, 4]: 68%

Compound: Oc1cc(O)c2c(c1)O[C@H](c1ccc(O)c(O)c1)[C@H](O)C2 [Monomer, epicatechin]
- production of NO from HUVEC, dose dependence (in words) ([1]; 1, 10, 100 μg/ml): marked production but only at 100 μg/ml concentration
- Nitric Oxide Production by HUVEC, Exp. 1 ([1]; cocoa procyanidin 1 μg/ml): 2.3 μmol nitrite/10^6 cells/48 h
- Nitric Oxide Production by HUVEC, Exp. 2 ([1]; cocoa procyanidin 1 μg/ml): 2.5 μmol nitrite/10^6 cells/48 h
- Nitric Oxide Production by HUVEC, Exp. 3 ([1]; cocoa procyanidin 1 μg/ml): 2.6 μmol nitrite/10^6 cells/48 h
- Nitric Oxide Production by HUVEC, Mean ([1]; cocoa procyanidin 1 μg/ml): 2.5 μmol nitrite/10^6 cells/48 h
- Nitric Oxide Production by HUVEC, Exp. 1 ([1]; cocoa procyanidin 10 μg/ml): 2.7 μmol nitrite/10^6 cells/48 h
- Nitric Oxide Production by HUVEC, Exp. 2 ([1]; cocoa procyanidin 10 μg/ml): 2.8 μmol nitrite/10^6 cells/48 h
- Nitric Oxide Production by HUVEC, Exp. 3 ([1]; cocoa procyanidin 10 μg/ml): 2.6 μmol nitrite/10^6 cells/48 h
- Nitric Oxide Production by HUVEC, Mean ([1]; cocoa procyanidin 10 μg/ml): 2.7 μmol nitrite/10^6 cells/48 h
- Nitric Oxide Production by HUVEC, Exp. 1 ([1]; cocoa procyanidin 100 μg/ml): 5.4 μmol nitrite/10^6 cells/48 h
- Nitric Oxide Production by HUVEC, Exp. 2 ([1]; cocoa procyanidin 100 μg/ml): 5.9 μmol nitrite/10^6 cells/48 h
- Nitric Oxide Production by HUVEC, Exp. 3 ([1]; cocoa procyanidin 100 μg/ml): 5.7 μmol nitrite/10^6 cells/48 h
- Nitric Oxide Production by HUVEC, Mean ([1]; cocoa procyanidin 100 μg/ml): 5.7 μmol nitrite/10^6 cells/48 h
- potency of the various procyanidins, NO production (rank) ([1]; highest dose used, 100 μg/ml): dimer>trimer>heptamer=pentmer=tetramer>monomer; also recorded: dimer>trimer>hexamer=pentamer=tetramer>monomer
- Hypertension (%)* Exp 1 ([3]; 1 mg/kg intravenously): 55.32%
- Hypertension (%)* Exp 2 ([3]; 1 mg/kg intravenously): 70.31%
- Hypertension (%)* Exp 3 ([3]; 1 mg/kg intravenously): 70.27%
- Hypertension (%)* Exp 4 ([3]; 1 mg/kg intravenously): 75.99%
- Hypertension (%)* Exp 5 ([3]; 1 mg/kg intravenously): 71.92%
- Hypertension (%)* Exp 6 ([3]; 1 mg/kg intravenously): 77.97%
- Hypertension (%)* Exp 1 ([3]; 3 mg/kg intravenously): 62.99%
- Hypertension (%)* Exp 2 ([3]; 3 mg/kg intravenously): 72.62%
- Hypertension (%)* Exp 3 ([3]; 3 mg/kg intravenously): 74.59%
- Hypertension (%)* Exp 4 ([3]; 3 mg/kg intravenously): 73.33%
- Hypertension (%)* Exp 5 ([3]; 3 mg/kg intravenously): 76.04%
- Hypertension (%)* Exp 6 ([3]; 3 mg/kg intravenously): 70.44%
- Hypertension (%)* Exp 1 ([3]; 10 mg/kg intravenously): 58.95%
- Hypertension (%)* Exp 2 ([3]; 10 mg/kg intravenously): 66.53%
- Hypertension (%)* Exp 3 ([3]; 10 mg/kg intravenously): 70.06%
- Hypertension (%)* Exp 4 ([3]; 10 mg/kg intravenously): 65.79%
- Hypertension (%)* Exp 5 ([3]; 10 mg/kg intravenously): 70.69%
- Hypertension (%)* Exp 6 ([3]; 10 mg/kg intravenously): 66.21%
- Hypertension (%)* Exp 1 ([3]; 25 mg/kg intravenously): 46.93%
- Hypertension (%)* Exp 2 ([3]; 25 mg/kg intravenously): 55.14%
- Hypertension (%)* Exp 3 ([3]; 25 mg/kg intravenously): 63.08%
- Hypertension (%)* Exp 4 ([3]; 25 mg/kg intravenously): 53.95%
- Hypertension (%)* Exp 5 ([3]; 25 mg/kg intravenously): 65.91%
- Hypertension (%)* Exp 6 ([3]; 25 mg/kg intravenously): 58.66%
- rank of potency of the various cocoa procyanidins, hypotension ([3]; considering the highest dose used): hexamer=tetramer>pentamer>trimer>dimer=monomer
- decrease in blood pressure ([3]; intravenous injection, solvent alone 15±5%): about 20%
- % Relaxation [2, 4]: 0%

Compound: CC(=O)O.CN[C@@H](CCCNC(=N)N)C(=O)O [LNMA, N-methyl L-arginine acetate, reference compound]
- production of nitric oxide by HUVEC evoked by ionomycin and lipolysaccharide (in words) ([1]; N-methyl L-arginine added to the incubation medium): blocked

Compound: C[C@H](CCC(=O)O)C[C@H](C)C[C@H](C)C(=O)/C=C(\O)[C@H](C)C[C@H](C)C/C=C/[C@@H](C)[C@@H](O)[C@@H](C)[C@@H](O)C[C@@H]1CC[C@@](C)([C@H]2CC[C@@](C)([C@@H](C)O)O2)O1 [Ionomycin, ionomycin, reference compound]
- production of nitric oxide by HUVEC (in words) ([1]; 1 μM): marked production of nitric oxide
- Nitric Oxide Production by HUVEC, Exp. 1 ([1]; Ionomycin 1 μM): 7.8 μmol nitrite/10^6 cells/48 h
- Nitric Oxide Production by HUVEC, Exp. 2 ([1]; Ionomycin 1 μM): 6.3 μmol nitrite/10^6 cells/48 h
- Nitric Oxide Production by HUVEC, Exp. 3 ([1]; Ionomycin 1 μM): 5.4 μmol nitrite/10^6 cells/48 h
- Nitric Oxide Production by HUVEC, Mean ([1]; Ionomycin 1 μM): 6.5 μmol nitrite/10^6 cells/48 h

Compound: lipopolysaccharide [LPS, reference compound]
- production of nitric oxide by HUVEC (in words) ([1]; 100 ng/ml): marked production of nitric oxide
- Nitric Oxide Production by HUVEC, Mean ([1]; LPS 100 mg/ml): 14.4 μmol nitrite/10^6 cells/48 h
- Nitric Oxide Production by HUVEC, Exp. 1 ([1]; LPS 100): 15.6 μmol nitrite/10^6 cells/48 h
- Nitric Oxide Production by HUVEC, Exp. 2 ([1]; LPS 100): 14.3 μmol nitrite/10^6 cells/48 h
- Nitric Oxide Production by HUVEC, Exp. 3 ([1]; LPS 100): 13.2 μmol nitrite/10^6 cells/48 h
